Results reported in US9402821B2, “Methods and pharmaceutical compositions for treatment of cystic fibrosis” (INSERM (Institut National de la sante et de la Recherche …, priority 2012, dated 2016).

Molecular target: T1, ENaC (Homo sapiens, UniProt P37088+P51168+P51170)
T1 construct: endogenous in cells; host or cells: primary human nasal epithelial cells (HNEC)
T1 sequence (P37088 1-669): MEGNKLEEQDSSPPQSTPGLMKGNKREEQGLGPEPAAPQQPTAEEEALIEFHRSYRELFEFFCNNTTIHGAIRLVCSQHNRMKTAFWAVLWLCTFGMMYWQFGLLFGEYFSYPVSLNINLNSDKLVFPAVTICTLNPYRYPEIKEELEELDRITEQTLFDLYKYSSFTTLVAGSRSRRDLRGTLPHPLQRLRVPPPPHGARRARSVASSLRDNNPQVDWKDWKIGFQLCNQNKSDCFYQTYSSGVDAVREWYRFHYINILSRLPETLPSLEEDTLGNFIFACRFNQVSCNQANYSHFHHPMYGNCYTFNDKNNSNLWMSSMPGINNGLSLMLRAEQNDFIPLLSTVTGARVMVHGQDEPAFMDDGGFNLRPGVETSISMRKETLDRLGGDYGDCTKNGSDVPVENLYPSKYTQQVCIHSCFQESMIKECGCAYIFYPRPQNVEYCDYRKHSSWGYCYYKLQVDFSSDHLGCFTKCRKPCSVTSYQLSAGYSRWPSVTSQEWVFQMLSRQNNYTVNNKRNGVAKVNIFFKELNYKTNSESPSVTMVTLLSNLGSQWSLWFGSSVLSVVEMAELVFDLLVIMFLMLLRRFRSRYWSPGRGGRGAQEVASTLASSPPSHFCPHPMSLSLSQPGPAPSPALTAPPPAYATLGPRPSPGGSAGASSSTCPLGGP
T1 sequence (P51168 1-640): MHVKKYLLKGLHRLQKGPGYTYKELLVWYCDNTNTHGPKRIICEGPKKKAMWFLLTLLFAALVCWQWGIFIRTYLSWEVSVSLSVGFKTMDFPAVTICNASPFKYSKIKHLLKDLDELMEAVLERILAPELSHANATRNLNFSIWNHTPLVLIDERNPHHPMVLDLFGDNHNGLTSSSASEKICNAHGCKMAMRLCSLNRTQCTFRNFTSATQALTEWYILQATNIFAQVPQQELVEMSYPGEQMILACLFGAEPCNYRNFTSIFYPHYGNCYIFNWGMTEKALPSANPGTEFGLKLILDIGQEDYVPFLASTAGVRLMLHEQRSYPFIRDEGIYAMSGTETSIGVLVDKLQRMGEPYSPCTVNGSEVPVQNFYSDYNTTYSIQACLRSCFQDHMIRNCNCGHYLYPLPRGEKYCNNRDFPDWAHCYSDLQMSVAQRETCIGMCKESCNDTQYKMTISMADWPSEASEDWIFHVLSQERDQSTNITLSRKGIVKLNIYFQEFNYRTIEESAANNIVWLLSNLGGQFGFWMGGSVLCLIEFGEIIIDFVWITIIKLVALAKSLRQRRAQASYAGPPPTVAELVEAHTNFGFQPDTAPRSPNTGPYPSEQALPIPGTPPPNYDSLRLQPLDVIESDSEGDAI
T1 sequence (P51170 1-649): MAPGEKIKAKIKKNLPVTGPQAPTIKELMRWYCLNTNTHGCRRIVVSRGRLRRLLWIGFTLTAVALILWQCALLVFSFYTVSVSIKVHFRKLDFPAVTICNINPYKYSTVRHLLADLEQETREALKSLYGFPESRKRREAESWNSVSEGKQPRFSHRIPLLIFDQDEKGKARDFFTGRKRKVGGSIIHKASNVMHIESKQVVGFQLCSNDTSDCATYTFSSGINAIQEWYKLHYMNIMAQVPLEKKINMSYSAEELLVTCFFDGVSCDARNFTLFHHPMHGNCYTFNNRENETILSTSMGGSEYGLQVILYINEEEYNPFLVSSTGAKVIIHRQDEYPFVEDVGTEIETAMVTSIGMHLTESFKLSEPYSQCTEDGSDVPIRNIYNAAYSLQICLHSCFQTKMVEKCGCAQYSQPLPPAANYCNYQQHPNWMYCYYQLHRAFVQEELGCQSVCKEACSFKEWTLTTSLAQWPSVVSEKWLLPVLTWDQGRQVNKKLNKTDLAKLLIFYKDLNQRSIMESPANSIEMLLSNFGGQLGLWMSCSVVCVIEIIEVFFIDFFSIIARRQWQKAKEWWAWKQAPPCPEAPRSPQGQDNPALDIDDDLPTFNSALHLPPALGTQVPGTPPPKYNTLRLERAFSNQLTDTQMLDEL
Experiment: Short circuit current, amiloride sensitive transport in HNEC
Type: cell-based
Conditions: primary HNEC; 500 μM basolateral, 2 h
Procedure: B. Chloride activity in HeLa Wt cells was measured by MQAE assay, after 3 h of treatment by NSAID (500 μM) or diluent. CFTR activity was expressed in rate of UFA/sec, calculated by difference between ((Ft−F0)/t) with CFTR induction and ((Ft−F0)/t) without CFTR induction. […] C. Primary culture of human nasal epithelial cell (HNEC) grown on Snapwell filters (air-liquid interface) were exposed basolaterally to sulindac (500 μM) or vehicle for 2 h and immediately mounted into a voltage-clamp system to bioelectric measurements. Short circuit current was measured with addition of amiloride to evaluated amiloride sensitive transport or with forskolin and IBMX for induced cAMP-dependent Cl secretion.
Two cell models were used to the interface air-liquid model for ionic efflux assays by short circuit current and to dose the basolateral IL-8 secretion. Calu-3 are derived from lung adenocarcinoma and are able to polarized and express a high rate of endogenous CFTR. […] Transepithelial resistance and transepithelial potential difference were measured every 3 days using a microvoltmeter (World Precision Instruments, Astonbury, UK).
Cells were grown at 37° C. in a 5% CO2 incubator in DMEM with Glutamax (Invitrogen) and 10% fetal bovine serum (SVF). […] The effects of treatment in HNEC cultures on snapwell inserts were evaluated between days 10 and 16. […]

## CC1=C(CC(=O)O)c2cc(F)ccc2/C1=C\c1ccc([S+](C)[O-])cc1 (stereo not shown) [sulindac, (Z)-5-fluoro-2-methyl-1-[p-(methylsulfinyl)benzylidene]-indene-3-acetic acid]
  ENaC activity (amiloride sensitive short circuit current): not induced modification of ENaC activity
